How the values were obtained:
Lewis female rat = experiment: Adjuvant arthritis test; format: in vivo; details: 50 mg/kg oral daily, 8th to 21st day after adjuvant injection, 6 cases; for Edema inhibiting rate against control group, +14 day, Left / Edema inhibiting rate against control group, +21 day, Left: left hindpaw (injected); for Edema inhibiting rate against control group, +14 day, Left / Edema inhibiting rate against control group, +14 day, Right: day 14; for Edema inhibiting rate against control group, +21 day, Left / Edema inhibiting rate against control group, +21 day, Right: day 21; for Edema inhibiting rate against control group, +14 day, Right / Edema inhibiting rate against control group, +21 day, Right: right hindpaw; for Zonal bone damage inhibiting rate against control group, +22 day: soft X-ray of hindlegs, day 22
Procedure: When a Mycobacterium butyricum adjuvant is injected into a rat, there occurs polyarthritis similar to human rheumatoid arthritis. Using such an adjuvant arthritis model, the anti-inflammatory and anti-rheumatic effects of the compounds of the present invention and the reference were examined according to the following procedure.
0.1 mg of dry dead Mycobacterium butyricum was suspended in 0.1 ml of liquid paraffin, and the suspension was injected into the skin of the sole of the left hindpaw of a Lewis female rat, 7-weeks old. The compounds obtained in Examples 2 and 4 and Reference were respectively dissolved in sterilized distilled water and orally administered at a dose of 50 mg per kg of body weight every day for two weeks from the 8th to 21st day after adjuvant injection. The volumes of the left and right hindpaws were measured. Edema density was calculated according to the formula [formula] and the Edema inhibiting rate was obtained according to the formula [formula] with the results shown in Table 1.
On the 22nd day, the rats were sacrificed, and soft X-ray photos of the left and right hind-legs were taken, and, based on the soft X-ray photos, the extent of bone damage at 5 zones on the left and right hindlegs was evaluated in points of 5 ranks, and the total points were taken as the zonal bone damage index. Further, the zonal bone damage inhibiting rate was calculated according to the formula [formula] with the results shown in Table 1.
The results thus obtained had ** noted for those which were significant according to the Student t-test and Tukey multiple comparison method with a perilous rate p<0.02 against the control group having only the sterilized distilled water administered and * noted for those which were significant with a perilous rate p<0.05.

SD rats = experiment: Acute toxicity test; format: in vivo, rat; details: 14 days, 20160 min
Procedure: (§1) Using female and male SD rats (5-week age), 6 rats per group, and a 10% aqueous solution of gum arabic for oral administration, and distilled water for intravenous administration as a solvent for the compound to be tested, mortality, during 14 days after administration were recorded, and the LD50 values were calculated according to the Miller and Tainter Method (1944).

osteoclasts = experiment: Bone resorption inhibition test; format: cell-based; details: Mus musculus, Osteoclast, 120 h, active-type vitamin D3 (10^-10 M), ivory lamella, 5 days, read-out: Bone resorption inhibiting rate against control group
Procedure: With an osteoclast fraction prepared from the hindleg of a mouse placed on a lamella of ivory and stimulated by active-type vitamin D3 there is an resorption lacuna produced on the surface of ivory due to the absorption activity of the osteoclast. Using this absorption model of the bone, the bone resorption inhibiting effect of the compound of the invention was examined according to the following procedure.
5 μl of a suspension of osteoclasts prepared from the hindleg of a mouse was placed on a lamella of ivory and cultured in 500 μl of a 5% calf serum α-added MEM medium containing active-type vitamin D3 (10^-10 M) and the compound of the present invention ([…] or 10^-5 M) for 5 days. After culturing, the osteoclasts were removed from the ivory lamella, and the ivory was stained. The total area of resorption lacunae which became obvious by staining was calculated through image analysis. The bone absorption inhibiting rate was calculated by the formula [formula]

Acute toxicity test = format: in vivo, rat; details: rat, in vivo, iv, 14 days, distilled water
Procedure: as §1

[1] = Oral, Female SD rats, 10% gum arabic
[2] = Oral, Male SD rats, 10% gum arabic

Row | Compound | Edema inhibiting rate against control group, +14 day, Left (Lewis female rat) | Edema inhibiting rate against control group, +21 day, Left (Lewis female rat) | Edema inhibiting rate against control group, +14 day, Right (Lewis female rat) | Edema inhibiting rate against control group, +21 day, Right (Lewis female rat) | Zonal bone damage inhibiting rate against control group, +22 day (Lewis female rat) | LD50 Values (SD rats; Intravenous, Female SD rats, distilled water) | LD50 Values (SD rats; Intravenous, Male SD rats, distilled water) | LD50 Values (SD rats; [1]) | LD50 Values (SD rats; [2]) | inhibition at 10 µM (osteoclasts; 10^-5 M) | inhibition at 1 µM (osteoclasts; 10^-6 M) | LD50 at 336 h (Acute toxicity test; Female SD rats) | LD50 at 336 h (Acute toxicity test; Male SD rats)
1 | O=P(O)(O)C(Cc1ccc(O)cc1)P(=O)(O)O [Reference compound, 2-(4-hydroxyphenyl)ethylidene-1,1-diphosphonic acid, reference compound] | 4.4% | 0.9% | 7.9% | 6.9% | 0% | – | – | – | – | – | – | – | –
2 | CC(C)(C)c1cc(CC(P(=O)(O)O)P(=O)(O)O)cc(C(C)(C)C)c1O [Example 4, 2-(3,5-di-t-butyl-4-hydroxyphenyl)ethylidene-1,1-di-phosphonic acid] | 2.6% | 9.7% | 31.6% | 21.6% | 29.4% | – | – | – | – | – | – | – | –
3 | CC(C)(C)c1cc(SC(P(=O)(O)O)P(=O)(O)O)cc(C(C)(C)C)c1O [Example 8, Disodium(3,5-di-t-butyl-4-hydroxyphenylthio)methylenediphosphonate] | – | – | – | – | – | 35.7 mg/kg | 48.2 mg/kg | 1770 mg/kg | 1871 mg/kg | – | – | – | –
4 | CC(C)(C)c1cc(SC(P(=O)(O)O)P(=O)(O)O)cc(C(C)(C)C)c1O [Example 2, (3,5-di-t-butyl-4-hydroxyphenylthio)methylenediphosphonic acid] | 29.2% | 33.8% | 39.7% | 30.4% | 32.5% | – | – | 616 mg/kg | 652 mg/kg | 86% | 48% | 29.8 mg/kg | 45.2 mg/kg
